Experimental data taken from ChEMBL document CHEMBL5038640, “Natural Berberine-derived Azolyl Ethanols as New Structural Antibacterial Agents against Drug-Resistant Escherichia coli” (J Med Chem, 2022).
In brackets after ≈: the same amount, converted by molar mass. Activity calls are given as the source filed them. The calls are words filed in the database; no cut-off is given here.

What was measured:
[1] = Hemolytic activity against human RBC assessed as 50% hemolysis measured upto 64 times of MIC after 1 to 8 hr; assay type: toxicity, cell-based; details: erythrocyte, time 1-8 hrs
[2] = test system: Escherichia coli; test: Induction of intracellular ROS production in Escherichia coli assessed as increase in ROS accumulation at 0.007 to 0.224 mM incubated for 6 hrs by DCFH-DA assay; assay type: functional, organism-based; details: dose 0.007-0.224 mM
[3] = test system: Staphylococcus aureus; test: Antibacterial activity against Staphylococcus aureus ATCC 25923 assessed as decrease in bacterial growth incubated for 18 hrs by broth microdilution method; assay type: functional
[4] = test system: Escherichia coli; test: Antibacterial activity against Escherichia coli ATCC 25922 assessed as decrease in bacterial growth incubated for 18 hrs by broth microdilution method; assay type: functional
[5] = test system: Acinetobacter baumannii; test: Antibacterial activity against Acinetobacter baumannii assessed as decrease in bacterial growth incubated for 18 hrs by broth microdilution method; assay type: functional
[6] = test system: Escherichia coli; test: Bactericidal activity against Escherichia coli assessed as reduction in colony formation at 8 times MIC measured after upto 6 hrs by time kill assay; assay type: functional, organism-based; details: time hrs <=6
[7] = test system: Escherichia coli; test: Antibacterial activity against Escherichia coli assessed as reduction in metabolic activity in presence of resazurin measured after 6 hrs by alamar blue assay; assay type: functional, organism-based
[8] = test system: Escherichia coli; test: Antibacterial activity against Escherichia coli assessed as decrease in bacterial growth incubated for 18 hrs by broth microdilution method; assay type: functional
[9] = test system: Klebsiella pneumoniae; test: Antibacterial activity against Klebsiella pneumoniae assessed as decrease in bacterial growth incubated for 18 hrs by broth microdilution method; assay type: functional
[10] = test system: Escherichia coli; test: Biofilm disruption activity in Escherichia coli assessed as reduction in exo-polysaccharide incubated for 24 hrs by crystal violet staining based assay; assay type: functional, organism-based
[11] = test system: Staphylococcus aureus; test: Antibacterial activity against methicillin-resistant Staphylococcus aureus N315 assessed as decrease in bacterial growth incubated for 18 hrs by broth microdilution method; assay type: functional
[12] = test system: Calf thymus DNA; test: Binding affinity to calf thymus DNA assessed as red shift in absorption spectra at pH 7.4 by UV-vis absorption spectroscopy; assay type: nucleic-acid assay; details: Bos taurus
[13] = Cytotoxicity against human FHC cells assessed as cell viability upto 0.100 mM incubated for 24 hrs by MTT assay; assay type: toxicity, cell-based; details: read-out: Activity
[14] = test system: Cell membrane; test: Induction of cell membrane disruption in Escherichia coli assessed as increase in protein leakage upto 0.224 mM by Bradford assay; assay type: subcellular; details: dose mM <=0.224
[15] = test system: Cell membrane; test: Induction of cell membrane disruption in Escherichia coli assessed as increase in protein leakage upto 0.192 mM by Bradford assay; assay type: subcellular; details: dose mM <=0.192
[16] = Aqueous solubility of the compound in saline; assay type: physicochemical
[17] = test system: Escherichia coli; test: Induction of bacterial resistance in Escherichia coli assessed as change in MIC measured after 16 days by resistance development assay; assay type: functional; details: time 16.0 day
[18] = test system: Escherichia coli; test: Biofilm disruption activity in Escherichia coli assessed as mass loss of biofilm upto 0.112 mM incubated for 24 hrs by crystal violet staining based assay; assay type: functional, organism-based; details: dose mM <=0.112, time 24.0 hrs
[19] = test system: Pseudomonas aeruginosa; test: Antibacterial activity against Pseudomonas aeruginosa assessed as decrease in bacterial growth incubated for 18 hrs by broth microdilution method; assay type: functional
[20] = test system: Cell membrane; test: Induction of outer membrane permeabilization in Escherichia coli assessed as increase in fluorescence intensity at MIC incubated for 6 hrs by NPN-dye based fluorescence assay; assay type: subcellular
[21] = test system: A549; test: Cytotoxicity against human A549 cells assessed as cell viability upto 0.100 mM incubated for 24 hrs by MTT assay; assay type: functional, cell-based; details: dose mM <=0.100, time 24.0 hrs
[22] = test system: Staphylococcus aureus; test: Antibacterial activity against Staphylococcus aureus assessed as decrease in bacterial growth incubated for 18 hrs by broth microdilution method; assay type: functional
[23] = test system: Staphylococcus aureus; test: Antibacterial activity against Staphylococcus aureus ATCC 29213 assessed as decrease in bacterial growth incubated for 18 hrs by broth microdilution method; assay type: functional
[24] = test system: Pseudomonas aeruginosa; test: Antibacterial activity against Pseudomonas aeruginosa ATCC 27853 assessed as decrease in bacterial growth incubated for 18 hrs by broth microdilution method; assay type: functional
[25] = test system: Escherichia coli; test: Induction of bacterial resistance in Escherichia coli assessed as fold increase in MIC measured after 16 days by resistance development assay; assay type: functional; details: time 16.0 day
[26] = test system: Cell membrane; test: Induction of membrane disruption in Escherichia coli at 2 times of MIC incubated for 6 hrs by DAPI staining and propidium iodide staining based fluorescence assay; assay type: subcellular
[27] = Cytotoxicity against human PNT1A cells assessed as cell viability upto 0.100 mM incubated for 24 hrs by MTT assay; assay type: toxicity, cell-based; details: read-out: Activity
[28] = test system: DNA; test: Competitive binding affinity to Escherichia coli DNA assessed as DNA intercalation by AO staining based assay; assay type: nucleic-acid assay
[29] = test system: Escherichia coli; test: Anti-bioflim activity against Escherichia coli assessed as inhibition of bioflim formation at MIC incubated for 24 hrs followed by compound washout by crystal violet staining based assay; assay type: functional
[30] = test system: Enterococcus faecalis; test: Antibacterial activity against Enterococcus faecalis assessed as decrease in bacterial growth incubated for 18 hrs by broth microdilution method; assay type: functional
[31] = test system: Cell membrane; test: Induction of Inner membrane permeabilization in Escherichia coli assessed as increase in fluorescence intensity at MIC incubated for 6 hrs by PI staining based assay; assay type: subcellular
[32] = test system: Cell membrane; test: Induction of membrane depolarization in Escherichia coli at 0.007 to 0.112 mM incubated for 6 hrs by DiSC35 dye-based fluorescence assay; assay type: subcellular; details: dose 0.007-0.112 mM
[33] = test system: Escherichia coli; test: Biofilm disruption activity in Escherichia coli at MIC incubated for 24 hrs by crystal violet staining based assay; assay type: functional; details: dose 0.007 mM

SMILES: COc1ccc2cc3[n+](cc2c1OCC(O)Cn1c([N+](=O)[O-])cnc1C)CCc1cc2c(cc1-3)OCO2.[Br-] (stereo not given)
- Activity [1]: Non-Toxic
- Activity [2]: Active
- MIC [3]: 55 µM
- MIC [4]: 55 µM
- MIC [5]: 14 µM
- Activity [6]: Active
- Activity [7]: Active
- MIC [8]: 7 µM
- MIC [9]: 27 µM
- Activity [10]: Active
- MIC [11]: 14 µM
- Activity [12]: Active
- viability at 24 h [13]: 70%
- Activity [14]: Active
- Activity [15]: Active
- solubility [16]: 908 µM
- Activity [17]: inactive
- Activity [18]: Dose-Dependent Effect
- MIC [19]: 55 µM
- Activity [20]: Active
- Activity [21]: inactive
- MIC [22]: 109 µM
- MIC [23]: 55 µM
- MIC [24]: 55 µM
- Activity [25]: inactive
- Activity [26]: Active
- viability at 24 h [27]: 70%
- Activity [28]: Active
- inhibition (INH) [29]: 28.25%
- MIC [30]: 14 µM
- Activity [31]: Active
- Activity [32]: Active
- Activity [33]: 40%

SMILES: COc1ccc2cc3[n+](cc2c1OCC(O)CN1CCOCC1)CCc1cc2c(cc1-3)OCO2.[Br-] (stereo not given)
- MIC [3]: 469 µM
- MIC [4]: 235 µM
- MIC [5]: 469 µM
- MIC [8]: 235 µM
- MIC [9]: 469 µM
- MIC [11]: 469 µM
- solubility [16]: 2190 µM
- MIC [19]: 469 µM
- MIC [22]: 469 µM
- MIC [23]: 235 µM
- MIC [24]: 469 µM
- MIC [30]: 469 µM

SMILES: COc1ccc2cc3[n+](cc2c1OCC(O)Cn1cnc2cc(Br)ccc21)CCc1cc2c(cc1-3)OCO2.[Br-] (stereo not given)
- MIC [3]: 98 µM
- MIC [4]: 98 µM
- MIC [5]: 98 µM
- MIC [8]: 49 µM
- MIC [9]: 24 µM
- MIC [11]: 24 µM
- solubility [16]: 774 µM
- MIC [19]: 98 µM
- MIC [22]: 98 µM
- MIC [23]: 98 µM
- MIC [24]: 98 µM
- MIC [30]: 98 µM

SMILES: CCn1cc(C(=O)O)c(=O)c2cc(F)c(N3CCNCC3)cc21 [NORFLOXACIN]
- MIC [3]: 13 µM (≈ 4.15 µg/mL)
- MIC [4]: 13 µM (≈ 4.15 µg/mL)
- MIC [5]: 6 µM (≈ 1.92 µg/mL)
- MIC [8]: 13 µM (≈ 4.15 µg/mL)
- MIC [9]: 6 µM (≈ 1.92 µg/mL)
- MIC [11]: 25 µM (≈ 7.98 µg/mL)
- MIC [19]: 25 µM (≈ 7.98 µg/mL)
- MIC [22]: 2 µM (≈ 0.639 µg/mL)
- MIC [23]: 100 µM (≈ 31.9 µg/mL)
- MIC [24]: 200 µM (≈ 63.9 µg/mL)
- fold change (FC) [25]: 64
- MIC [30]: 6 µM (≈ 1.92 µg/mL)

SMILES: COc1ccc2cc3[n+](cc2c1OCC(O)Cn1cnnc1)CCc1cc2c(cc1-3)OCO2.[Br-] (stereo not given)
- MIC [3]: 243 µM
- MIC [4]: 243 µM
- MIC [5]: 243 µM
- MIC [8]: 121 µM
- MIC [9]: 121 µM
- MIC [11]: 243 µM
- solubility [16]: 1100 µM
- MIC [19]: 243 µM
- MIC [22]: 243 µM
- MIC [23]: 243 µM
- MIC [24]: 121 µM
- MIC [30]: 243 µM

SMILES: COc1ccc2cc3[n+](cc2c1OCC(O)CSc1nccn1C)CCc1cc2c(cc1-3)OCO2.[Br-] (stereo not given)
- MIC [3]: 56 µM
- MIC [4]: 112 µM
- MIC [5]: 56 µM
- MIC [8]: 28 µM
- MIC [9]: 112 µM
- MIC [11]: 56 µM
- solubility [16]: 791 µM
- MIC [19]: 112 µM
- MIC [22]: 112 µM
- MIC [23]: 112 µM
- MIC [24]: 112 µM
- MIC [30]: 56 µM

SMILES: COc1ccc2cc3[n+](cc2c1OCC(O)Cn1nnc2ccccc21)CCc1cc2c(cc1-3)OCO2.[Br-] (stereo not given)
- MIC [3]: 55 µM
- MIC [4]: 111 µM
- MIC [5]: 111 µM
- MIC [8]: 111 µM
- MIC [9]: 111 µM
- MIC [11]: 111 µM
- solubility [16]: 1720 µM
- MIC [19]: 111 µM
- MIC [22]: 111 µM
- MIC [23]: 55 µM
- MIC [24]: 111 µM
- MIC [30]: 111 µM
